# Measured values from publication PMC12090182, “Repurposing of the RIPK1-Selective Benzo[1,4]oxazepin-4-one Scaffold for the Development of a Type III LIMK1/2 Inhibitor” (ACS Chemical Biology, 2025).
# Like-named read-outs stand apart in the source and are kept apart here.
# Key:
# Assay in all cases: biochemical
# Assay type in all cases: binding
# [1] = target: 468 kinases including some pathogenic mutants (Homo sapiens, UniProt O60331); details: PIP5K1C (Entrez PIP5K1C), 1000 nM; read-out: Percent Control
# [2] = target: 468 kinases including some pathogenic mutants (Homo sapiens, UniProt O60674); details: JAK2(JH1domain-catalytic) (Entrez JAK2), 1000 nM; read-out: Percent Control
# [3] = target: 468 kinases including some pathogenic mutants (Homo sapiens, UniProt O75676); details: 1000 nM, read-out: Percent Control
# Sequence of 468 kinases including some pathogenic mutants (Homo sapiens, UniProt O75676) (O75676 whole entry, change not shown): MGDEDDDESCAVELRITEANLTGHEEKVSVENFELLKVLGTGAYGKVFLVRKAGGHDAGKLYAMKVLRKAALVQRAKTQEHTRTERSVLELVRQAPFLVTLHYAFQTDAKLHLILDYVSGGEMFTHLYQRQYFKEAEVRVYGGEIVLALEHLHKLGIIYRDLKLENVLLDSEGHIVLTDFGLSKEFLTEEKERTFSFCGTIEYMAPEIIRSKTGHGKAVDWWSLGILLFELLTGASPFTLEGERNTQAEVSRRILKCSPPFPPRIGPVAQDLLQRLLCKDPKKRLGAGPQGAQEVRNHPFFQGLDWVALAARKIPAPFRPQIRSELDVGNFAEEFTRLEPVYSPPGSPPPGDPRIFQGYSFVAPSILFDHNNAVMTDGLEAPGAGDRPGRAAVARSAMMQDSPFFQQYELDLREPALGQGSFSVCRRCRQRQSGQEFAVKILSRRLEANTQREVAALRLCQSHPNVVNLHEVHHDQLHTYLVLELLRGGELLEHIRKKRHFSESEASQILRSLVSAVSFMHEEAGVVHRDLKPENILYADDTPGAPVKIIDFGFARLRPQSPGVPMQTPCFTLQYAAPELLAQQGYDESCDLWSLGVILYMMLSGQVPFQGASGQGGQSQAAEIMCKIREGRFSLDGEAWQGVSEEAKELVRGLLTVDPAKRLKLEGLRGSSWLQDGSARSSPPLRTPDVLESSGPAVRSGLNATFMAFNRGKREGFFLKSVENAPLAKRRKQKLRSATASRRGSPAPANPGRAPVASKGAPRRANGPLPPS
# [4] = target: 468 kinases including some pathogenic mutants (Homo sapiens, UniProt P07333); details: CSF1R-autoinhibited (Entrez CSF1R), 100 nM; read-out: Percent Control
# [5] = target: 468 kinases including some pathogenic mutants (Homo sapiens, UniProt P21709); details: EPHA1 (Entrez EPHA1), 100 nM; read-out: Percent Control
# [6] = target: 468 kinases including some pathogenic mutants (Homo sapiens, UniProt P22694); details: PKAC-beta (Entrez PRKACB), 100 nM; read-out: Percent Control
# [7] = target: 468 kinases including some pathogenic mutants (Homo sapiens, UniProt P28482); details: ERK2 (Entrez MAPK1), 100 nM; read-out: Percent Control
# [8] = target: 468 kinases including some pathogenic mutants (Homo sapiens, UniProt P29322); details: EPHA8 (Entrez EPHA8), 100 nM; read-out: Percent Control
# Sequence of 468 kinases including some pathogenic mutants (Homo sapiens, UniProt P29322) (P29322 28-1005, change not shown): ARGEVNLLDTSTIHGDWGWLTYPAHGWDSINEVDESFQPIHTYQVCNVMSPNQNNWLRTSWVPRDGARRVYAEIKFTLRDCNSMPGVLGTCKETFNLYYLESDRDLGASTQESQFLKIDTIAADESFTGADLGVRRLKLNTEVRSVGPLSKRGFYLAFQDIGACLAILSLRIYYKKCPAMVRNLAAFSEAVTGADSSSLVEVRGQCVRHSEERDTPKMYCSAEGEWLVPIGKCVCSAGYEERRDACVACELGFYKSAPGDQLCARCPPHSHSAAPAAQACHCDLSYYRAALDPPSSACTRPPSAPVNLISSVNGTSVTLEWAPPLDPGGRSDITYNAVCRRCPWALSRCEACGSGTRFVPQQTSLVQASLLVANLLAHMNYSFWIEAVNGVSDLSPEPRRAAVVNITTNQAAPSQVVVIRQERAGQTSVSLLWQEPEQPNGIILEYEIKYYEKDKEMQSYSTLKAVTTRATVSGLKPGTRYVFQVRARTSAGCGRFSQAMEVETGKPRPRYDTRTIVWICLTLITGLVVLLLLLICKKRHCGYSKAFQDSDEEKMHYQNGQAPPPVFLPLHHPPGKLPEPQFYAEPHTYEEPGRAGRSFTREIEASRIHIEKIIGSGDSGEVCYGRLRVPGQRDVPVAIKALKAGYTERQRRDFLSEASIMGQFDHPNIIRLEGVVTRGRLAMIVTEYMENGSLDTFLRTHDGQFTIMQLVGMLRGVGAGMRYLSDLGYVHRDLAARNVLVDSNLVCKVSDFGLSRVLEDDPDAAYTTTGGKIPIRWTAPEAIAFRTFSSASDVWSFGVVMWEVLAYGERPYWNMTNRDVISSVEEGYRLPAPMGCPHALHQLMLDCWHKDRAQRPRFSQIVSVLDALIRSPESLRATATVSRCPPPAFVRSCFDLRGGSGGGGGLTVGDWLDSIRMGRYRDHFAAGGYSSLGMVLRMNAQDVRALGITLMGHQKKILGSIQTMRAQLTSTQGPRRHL
# [9] = target: 468 kinases including some pathogenic mutants (Homo sapiens, UniProt P36894); details: BMPR1A (Entrez BMPR1A), 100 nM; read-out: Percent Control
# [10] = target: 468 kinases including some pathogenic mutants (Homo sapiens, UniProt P36896); details: ACVR1B (Entrez ACVR1B), 100 nM; read-out: Percent Control
# [11] = target: 468 kinases including some pathogenic mutants (Homo sapiens, UniProt P37173); details: TGFBR2 (Entrez TGFBR2), 1000 nM; read-out: Percent Control
# [12] = target: 468 kinases including some pathogenic mutants (Homo sapiens, UniProt P42336, Q546K); details: read-out: Percent Control
# [13] = target: 468 kinases including some pathogenic mutants (Homo sapiens, UniProt P48730); details: CSNK1D (Entrez CSNK1D), 100 nM; read-out: Percent Control
# [14] = target: 468 kinases including some pathogenic mutants (Homo sapiens, UniProt Q05397); details: FAK (Entrez PTK2), 100 nM; read-out: Percent Control
# Sequence of 468 kinases including some pathogenic mutants (Homo sapiens, UniProt Q05397) (Q05397 whole entry, change not shown): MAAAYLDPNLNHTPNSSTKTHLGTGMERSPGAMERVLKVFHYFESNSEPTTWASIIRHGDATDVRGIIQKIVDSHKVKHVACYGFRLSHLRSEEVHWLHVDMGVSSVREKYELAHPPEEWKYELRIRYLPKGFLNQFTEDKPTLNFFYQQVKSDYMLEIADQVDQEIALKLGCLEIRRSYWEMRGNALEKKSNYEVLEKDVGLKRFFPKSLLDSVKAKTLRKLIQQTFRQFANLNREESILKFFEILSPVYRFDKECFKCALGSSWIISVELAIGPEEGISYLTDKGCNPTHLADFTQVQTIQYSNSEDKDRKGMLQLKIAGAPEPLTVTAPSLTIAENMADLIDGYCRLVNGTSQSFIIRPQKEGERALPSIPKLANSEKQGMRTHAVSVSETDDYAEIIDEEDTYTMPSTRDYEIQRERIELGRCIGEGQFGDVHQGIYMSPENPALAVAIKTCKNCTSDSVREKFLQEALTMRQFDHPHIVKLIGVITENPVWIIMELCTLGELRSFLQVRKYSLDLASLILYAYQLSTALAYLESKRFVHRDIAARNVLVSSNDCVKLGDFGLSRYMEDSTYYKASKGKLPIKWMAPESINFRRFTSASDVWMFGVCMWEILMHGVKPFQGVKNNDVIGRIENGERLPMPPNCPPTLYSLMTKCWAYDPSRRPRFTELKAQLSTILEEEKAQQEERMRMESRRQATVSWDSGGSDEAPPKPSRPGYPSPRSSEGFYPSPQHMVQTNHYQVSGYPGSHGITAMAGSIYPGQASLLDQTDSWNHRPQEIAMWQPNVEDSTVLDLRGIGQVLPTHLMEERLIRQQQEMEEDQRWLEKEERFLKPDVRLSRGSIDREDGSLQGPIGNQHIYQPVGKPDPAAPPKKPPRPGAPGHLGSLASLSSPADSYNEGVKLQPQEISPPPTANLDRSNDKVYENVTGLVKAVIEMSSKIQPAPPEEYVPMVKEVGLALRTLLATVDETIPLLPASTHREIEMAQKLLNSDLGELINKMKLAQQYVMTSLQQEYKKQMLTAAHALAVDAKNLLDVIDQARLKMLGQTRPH
# [15] = target: 468 kinases including some pathogenic mutants (Homo sapiens, UniProt Q13233); details: MAP3K1 (Entrez MAP3K1), 1000 nM; read-out: Percent Control
# [16] = target: 468 kinases including some pathogenic mutants (Homo sapiens, UniProt Q15303); details: ERBB4 (Entrez ERBB4), 100 nM; read-out: Percent Control
# [17] = target: 468 kinases including some pathogenic mutants (Homo sapiens, UniProt Q15418); details: 1000 nM, read-out: Percent Control
# Sequence of 468 kinases including some pathogenic mutants (Homo sapiens, UniProt Q15418) (Q15418 whole entry, change not shown): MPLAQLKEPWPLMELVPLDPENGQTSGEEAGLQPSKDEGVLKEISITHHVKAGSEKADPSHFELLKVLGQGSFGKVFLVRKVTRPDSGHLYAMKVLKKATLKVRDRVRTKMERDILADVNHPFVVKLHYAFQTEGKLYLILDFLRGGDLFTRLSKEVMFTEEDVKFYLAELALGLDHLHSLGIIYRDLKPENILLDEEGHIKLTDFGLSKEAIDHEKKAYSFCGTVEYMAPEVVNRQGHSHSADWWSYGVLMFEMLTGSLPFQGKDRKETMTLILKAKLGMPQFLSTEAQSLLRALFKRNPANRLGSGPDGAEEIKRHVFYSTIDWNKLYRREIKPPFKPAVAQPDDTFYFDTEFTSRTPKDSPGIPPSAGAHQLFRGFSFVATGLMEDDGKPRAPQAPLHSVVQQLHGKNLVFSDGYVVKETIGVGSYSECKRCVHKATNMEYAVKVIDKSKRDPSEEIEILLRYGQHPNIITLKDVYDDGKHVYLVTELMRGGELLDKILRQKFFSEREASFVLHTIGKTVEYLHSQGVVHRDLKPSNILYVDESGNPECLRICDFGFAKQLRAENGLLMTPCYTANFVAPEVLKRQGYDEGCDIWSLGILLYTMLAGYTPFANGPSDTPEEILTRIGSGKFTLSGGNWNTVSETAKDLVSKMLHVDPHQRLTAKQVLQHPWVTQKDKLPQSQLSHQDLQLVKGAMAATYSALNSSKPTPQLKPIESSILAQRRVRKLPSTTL
# [18] = target: 468 kinases including some pathogenic mutants (Homo sapiens, UniProt Q16816); details: PHKG1 (Entrez PHKG1), 100 nM; read-out: Percent Control
# Sequence of 468 kinases including some pathogenic mutants (Homo sapiens, UniProt Q16816) (Q16816 whole entry, change not shown): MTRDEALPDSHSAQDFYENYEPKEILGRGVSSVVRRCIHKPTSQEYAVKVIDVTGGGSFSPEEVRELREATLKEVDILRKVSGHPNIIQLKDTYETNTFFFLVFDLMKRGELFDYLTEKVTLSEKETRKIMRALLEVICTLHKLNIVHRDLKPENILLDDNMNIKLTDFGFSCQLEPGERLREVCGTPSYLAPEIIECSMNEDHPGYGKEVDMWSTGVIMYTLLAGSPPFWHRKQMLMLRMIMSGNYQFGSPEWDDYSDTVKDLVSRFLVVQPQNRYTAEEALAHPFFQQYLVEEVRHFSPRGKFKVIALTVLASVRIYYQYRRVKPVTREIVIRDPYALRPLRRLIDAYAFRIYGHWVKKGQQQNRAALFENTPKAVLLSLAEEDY
# [19] = target: 468 kinases including some pathogenic mutants (Homo sapiens, UniProt Q8IY84); details: NIM1 (Entrez MGC42105), 1000 nM; read-out: Percent Control
# [20] = target: 468 kinases including some pathogenic mutants (Homo sapiens, UniProt Q8N4C8); details: MINK (Entrez MINK1), 100 nM; read-out: Percent Control
# [21] = target: 468 kinases including some pathogenic mutants (Homo sapiens, UniProt Q8NEB9); details: VPS34 (Entrez PIK3C3), 1000 nM; read-out: Percent Control
# [22] = target: 468 kinases including some pathogenic mutants (Homo sapiens, UniProt Q8WXR4); details: MYO3B (Entrez MYO3B), 100 nM; read-out: Percent Control
# [23] = target: 468 kinases including some pathogenic mutants (Homo sapiens, UniProt Q96Q40); details: PFTAIRE2 (Entrez CDK15), 100 nM; read-out: Percent Control
# Sequence of 468 kinases including some pathogenic mutants (Homo sapiens, UniProt Q96Q40) (Q96Q40 whole entry, change not shown): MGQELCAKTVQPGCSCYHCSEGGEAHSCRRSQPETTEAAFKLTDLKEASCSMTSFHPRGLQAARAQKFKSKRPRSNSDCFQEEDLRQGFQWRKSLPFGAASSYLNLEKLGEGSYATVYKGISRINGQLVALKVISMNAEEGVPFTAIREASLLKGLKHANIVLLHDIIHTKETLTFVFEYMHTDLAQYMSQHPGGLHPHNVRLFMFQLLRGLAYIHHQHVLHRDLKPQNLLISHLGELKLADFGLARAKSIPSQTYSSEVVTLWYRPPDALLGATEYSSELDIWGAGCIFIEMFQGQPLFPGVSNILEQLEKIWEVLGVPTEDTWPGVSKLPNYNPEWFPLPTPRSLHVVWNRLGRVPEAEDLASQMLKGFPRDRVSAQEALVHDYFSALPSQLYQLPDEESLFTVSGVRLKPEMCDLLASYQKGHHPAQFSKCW
# [24] = target: 468 kinases including some pathogenic mutants (Homo sapiens, UniProt Q9BYP7); details: WNK3 (Entrez WNK3), 100 nM; read-out: Percent Control
# [25] = target: 468 kinases including some pathogenic mutants (Homo sapiens, UniProt Q9BYT3); details: STK33 (Entrez STK33), 1000 nM; read-out: Percent Control
# [26] = target: 468 kinases including some pathogenic mutants (Homo sapiens, UniProt Q9P286); details: PAK7 (Entrez PAK7), 100 nM; read-out: Percent Control
# Sequence of 468 kinases including some pathogenic mutants (Homo sapiens, UniProt Q9P286) (Q9P286 whole entry, change not shown): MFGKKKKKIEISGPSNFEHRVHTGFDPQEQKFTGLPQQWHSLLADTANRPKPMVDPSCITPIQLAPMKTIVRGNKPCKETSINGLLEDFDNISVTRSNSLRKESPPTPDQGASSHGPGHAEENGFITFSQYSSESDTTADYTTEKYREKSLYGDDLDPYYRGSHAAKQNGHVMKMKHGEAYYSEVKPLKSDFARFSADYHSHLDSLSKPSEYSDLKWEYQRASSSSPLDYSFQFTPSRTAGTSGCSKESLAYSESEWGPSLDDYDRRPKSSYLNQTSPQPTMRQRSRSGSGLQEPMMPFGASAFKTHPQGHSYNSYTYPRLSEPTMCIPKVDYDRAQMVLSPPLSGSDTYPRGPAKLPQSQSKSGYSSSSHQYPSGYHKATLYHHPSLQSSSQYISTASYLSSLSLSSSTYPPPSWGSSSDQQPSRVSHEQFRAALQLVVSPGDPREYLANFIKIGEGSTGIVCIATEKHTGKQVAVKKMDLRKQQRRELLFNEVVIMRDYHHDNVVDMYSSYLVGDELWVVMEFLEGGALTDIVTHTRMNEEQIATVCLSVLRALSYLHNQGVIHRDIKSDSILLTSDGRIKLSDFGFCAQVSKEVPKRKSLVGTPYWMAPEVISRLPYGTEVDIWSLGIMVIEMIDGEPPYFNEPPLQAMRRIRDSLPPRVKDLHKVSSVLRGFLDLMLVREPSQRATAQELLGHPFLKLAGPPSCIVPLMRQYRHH
# [27] = target: 468 kinases including some pathogenic mutants (Homo sapiens, UniProt Q9UKI8); details: TLK1 (Entrez TLK1), 1000 nM; read-out: Percent Control
structure (smiles),measurement,setting,value
"CN1C(=O)[C@@H](N2CCc3c(nn(Cc4ccccc4)c3C(N)=O)C2=O)COc2cc(Cl)ccc21 [Compound 10, (S)-2-benzyl-6-(8-chloro-5-methyl-4-oxo-2,3,4,5-tetrahydrobenzo[b][1,4]oxazepin-3-yl)-7-oxo-4,5,6,7-tetrahydro-2H-pyrazolo[3,4-c]pyridine-3-carboxamide]",remaining activity at 1 µM,[1],100%
same,remaining activity at 1 µM,[2],100%
same,remaining activity at 1 µM,[3]; RPS6KA4(Kin.Dom.1-N-terminal) (Entrez RPS6KA4),100%
same,remaining activity at 1 µM,[3]; RPS6KA4(Kin.Dom.2-C-terminal) (Entrez RPS6KA4),100%
same,remaining activity at 0.1 µM,[4],80%
same,remaining activity at 0.1 µM,[5],91%
same,remaining activity at 0.1 µM,[6],56%
same,remaining activity at 0.1 µM,[7],77%
same,remaining activity at 0.1 µM,[8],87%
same,remaining activity at 0.1 µM,[9],78%
same,remaining activity at 0.1 µM,[10],89%
same,remaining activity at 1 µM,[11],100%
same,remaining activity at 0.1 µM,[12],76%
same,remaining activity at 0.1 µM,[13],79%
same,remaining activity at 0.1 µM,[14],82%
same,remaining activity at 1 µM,[15],100%
same,remaining activity at 0.1 µM,[16],79%
same,remaining activity at 1 µM,[17]; RSK1(Kin.Dom.1-N-terminal) (Entrez RPS6KA1),100%
same,remaining activity at 1 µM,[17]; RSK1(Kin.Dom.2-C-terminal) (Entrez RPS6KA1),100%
same,remaining activity at 0.1 µM,[18],94%
same,remaining activity at 1 µM,[19],100%
same,remaining activity at 0.1 µM,[20],94%
same,remaining activity at 1 µM,[21],100%
same,remaining activity at 0.1 µM,[22],97%
same,remaining activity at 0.1 µM,[23],82%
same,remaining activity at 0.1 µM,[24],73%
same,remaining activity at 1 µM,[25],100%
same,remaining activity at 0.1 µM,[26],80%
same,remaining activity at 1 µM,[27],100%
